Measured values taken from US8912121B2, “Herbicidal compositions comprising 4-amino-3-chloro-5-fluoro-6-(4-chloro-2-fluoro-3-methoxyphenyl)pyridine-2-carboxylic acid or a derivative thereof and certain PS II inhibitors” (Dow Agrosciences LLC, priority 2012, dated 2014).
Several values for one entry are separate records, joined by “and”; a condition that tells them apart may be missing. Identical values can stand only once.

Legend:
[1] = test system: COMBE (Commelina benghalensis, Benghal dayflower); experiment: Postemergence foliar-applied mixtures, direct seeded rice, greenhouse; format: in vivo, Commelina benghalensis L.; conditions: 20 DAA
From the text: Seeds or nutlets of the desired test plant species were planted in a soil matrix prepared by mixing a loam or sandy loam soil (e.g., 28.6 percent silt, 18.8 percent clay, and 52.6 percent sand, with a pH of about 5.8 and an organic matter content of about 1.8 percent) and calcareous grit in an 80 to 20 ratio. The soil matrix was contained in plastic pots with a volume of 1 quart and a surface area of 83.6 square centimeters (cm^2). When required to ensure good germination and healthy plants, a fungicide treatment and/or other chemical or physical treatment was applied. The plants were grown for 8-22 days in a greenhouse with an approximate 14 h photoperiod which was maintained at about 29° C. during the day and 26° C. during the night. Nutrients (Peters Excel® 15-5-15 5-Ca 2-Mg and iron chelate) were applied in the irrigation solution as needed and water was added on a regular basis. Supplemental lighting was provided with overhead metal halide 1000-Watt lamps as necessary. The plants were employed for testing when they reached the first through fourth true leaf stage. […]
Treatment requirements were calculated based upon the rates being tested, the concentration of active ingredient or acid equivalent in the formulation, and a 12 mL application volume at a rate of 187 L/ha.
For treatments comprised of formulated compounds, measured amounts of compounds were placed individually in 25 mL glass vials and diluted in a volume of 1.25% (v/v) Agri-Dex® crop oil concentrated to obtain 12× stock solutions. […]
For treatments comprised of formulated and technical compounds, weighed amounts of the technical materials were placed individually in 25 mL glass vials and dissolved in a volume of 97:3 v/v acetone/DMSO to obtain 12× stock solutions, and measured amounts of the formulated compounds were placed individually in 25 mL glass vials and diluted in a volume of 1.5% (v/v) crop oil concentrate or water to obtain 12× stock solutions. […]

[2] = test system: AMARE (Amaranthus retroflexus, redroot pigweed); experiment: Postemergence herbicidal activity of mixtures in cereal crops, greenhouse; format: in vivo, Amaranthus retroflexus L.
Experimental: (§1) Seeds of the desired test plant species were planted in Sun Gro MetroMix® 306 planting mixture, which typically has a pH of 6.0 to 6.8 and an organic matter content of about 30 percent, in plastic pots with a surface area of 103.2 square centimeters (cm^2). When required to ensure good germination and healthy plants, a fungicide treatment and/or other chemical or physical treatment was applied. The plants were grown for 7-36 days in a greenhouse with an approximate 14 hour photoperiod which was maintained at about 18° C. during the day and about 17° C. during the night. Nutrients and water were added on a regular basis and supplemental lighting was provided with overhead metal halide 1000-Watt lamps as necessary. The plants were employed for testing when they reached the second or third true leaf stage.
(§2) Treatments consisted of the benzyl ester of 4-amino-3-chloro-5-fluoro-6-(4-chloro-2-fluoro-3-methoxy-phenyl)pyridine-2-carboxylic acid (Compound A), formulated as an SC, a second cereal herbicide alone and then both in combination.
(§3) Other herbicidal components were applied on an active ingredient basis and included PSII-inhibiting herbicides.
(§4) Measured aliquots of benzyl ester of 4-amino-3-chloro-5-fluoro-6-(4-chloro-2-fluoro-3-methoxy-phenyl)pyridine-2-carboxylic acid (Compound A) were placed in 25 milliliter (mL) glass vials and diluted in a volume of 1.25% (v/v) Agri-Dex® crop oil concentrate to obtain stock solutions. Compound requirements are based upon a 12 mL application volume at a rate of 187 liters per hectare (L/ha). Spray solutions of the second cereal herbicide and experimental compound mixtures were prepared by adding the stock solutions to the appropriate amount of dilution solution to form 12 mL spray solution with active ingredients in two- and three-way combinations. Formulated compounds were applied to the plant material with an overhead Mandel track sprayer equipped with an 8002E nozzle calibrated to deliver 187 L/ha over an application area of 0.503 square meters (m^2) at a spray height of 18 inches (46 cm) above average plant canopy. Control plants were sprayed in the same manner with the solvent blank.
(§5) The treated plants and control plants were placed in a greenhouse as described above and watered by sub-irrigation to prevent wash-off of the test compounds. After 20-22 days, the condition of the test plants as compared with that of the control plants was determined visually and scored on a scale of 0 to 100 percent where 0 corresponds to no injury and 100 corresponds to complete kill.
Colby's equation was used to determine the herbicidal effects expected from the mixtures (Colby, S. R. 1967. Calculation of the synergistic and antagonistic response of herbicide combinations. Weeds 15:20-22). […]

[3] = test system: VERPE (Veronica persica, Persian speedwell); experiment: as above; format: in vivo, Veronica persica Poir.
Experimental: as §1, §2, §3, §4, §5
Colby's equation was used to determine the herbicidal effects expected from the mixtures (Colby, S. R. 1967. Calculation of the synergistic and antagonistic response of herbicide combinations. Weeds 15:20-22).
The following equation was used to calculate the expected activity of mixtures containing two active ingredients, A and B: Expected=A+B−(A×B/100)

[4] = Compound A Benzyl Ester 5 g ai/ha

Row | Structure (SMILES) | Visual Weed Control (%) Obs ([1]; 3360 g ai/ha) [%] | Visual Weed Control (%) - 21 DAA AMARE Obs ([2]; Compound A Benzyl Ester 2.5 g ai/ha) [%] | Visual Weed Control (%) - 21 DAA AMARE Obs [2, 4] [%] | Visual Weed Control (%) - 21 DAA VERPE Obs [3, 4] [%] | Visual Weed Control (%) - 21 DAA VERPE Obs ([3]; Compound A Benzyl Ester 10 g ai/ha) [%] | Visual Weed Control (%) Obs ([1]; 6 g ae/ha)
1 | CCC(=O)Nc1ccc(Cl)c(Cl)c1 [Propanil, N-(3,4-dichlorophenyl)propanamide, reference compound] | 10 | – | – | – | – | –
2 | COc1c(Cl)ccc(-c2nc(C(=O)OCc3ccccc3)c(Cl)c(N)c2F)c1F [Compound A Benzyl Ester, benzyl ester of 4-amino-3-chloro-5-fluoro-6-(4-chloro-2-fluoro-3-methoxy-phenyl)pyridine-2-carboxylic acid] | – | 20 | 38 | 17 | 23 | 80% and 70%
